Experimental data: ChEMBL document CHEMBL5236544, “Furazans in Medicinal Chemistry” (J Med Chem, 2021)
≈ marks a conversion by molar mass, not a printed value.

Columns and labels:
[1] = test system: HL-60; test: Antiproliferative activity against (unknown origin) HL-60 assessed as inhibition of cell proliferation by MTT assay; type: functional, cell-based; conditions: Homo sapiens
[2] = test system: Daudi; test: Antiproliferative activity against human Daudi assessed as inhibition of cell proliferation by MTT assay; type: functional, cell-based
[3] = biological target: T1, Amyloid-beta precursor protein (Homo sapiens, UniProt P05067); test: Inhibition of amyloid beta (unknown origin) aggregation at 10 uM relative to control
[4] = test system: HeLa; test: Antiproliferative activity against human HeLa cells assessed as reduction in cell proliferation incubated for 72 hrs by MTS assay; type: functional, cell-based
[5] = biological target: Ribosomal protein S6 kinase alpha-1 (Homo sapiens, UniProt Q15418); test: Inhibition of RSK1 (unknown origin)
[6] = biological target: Mitogen-activated protein kinase 14 (Homo sapiens) (UniProt Q16539); test: Inhibition of recombinant p38alpha MAPK (unknown origin) at 10 uM preincubated for 10 mins followed by substrate addition and measured after 40 mins in the presence of ATP by ADP-Glo assay; conditions: time 60.0 min
[7] = biological target: Tumor necrosis factor (Homo sapiens) (UniProt P01375); test: Inhibition of TNF-alpha secretion in human THP-1 cells; parameters: concentration or dose not given beside the values; conditions: concentration not given here
[8] = Inhibition of ROMK (unknown origin); parameters: species or system Homo sapiens
[9] = Inhibition of rabbit GSK-3beta using CREB Phosphopeptide ( Lys-Arg-Arg-Glu-Ile-Leu-Ser-Arg-Arg-Pro-Ser(P)-Tyr-Arg) as substrate by scintillation counter method; parameters: species or system Oryctolagus cuniculus
[10] = Anti-inflammatory activity against human PBMCs assessed as reduction in LPS-induced TNF-alpha release by ELISA analysis; type: functional, cell-based; conditions: PBMC
[11] = species: Mus musculus; test: Anti-inflammatory activity in LPS-induced inflammatory mouse model assessed as reduction in neutrophil influx; type: functional
[12] = species: Rattus norvegicus; test: Anti-inflammatory activity against ovalbumin induced lung inflammatory rat model assessed as reduction in eosinophil influx; type: functional
[13] = biological target: Ribosomal protein S6 kinase alpha-5 (Homo sapiens, UniProt O75582); test: Inhibition of MSK-1 (unknown origin)
[14] = biological target: Lactate dehydrogenase (Plasmodium falciparum, UniProt Q0PJ46); test: Inhibition of recombinant Plasmodium falciparum LDH
[15] = Inhibition of human recombinant LDH
[16] = test system: Influenza A virus; test: Antiviral activity against influenza A H1N1; type: functional, organism-based
[17] = Binding affinity to human erythrocyte nucleoside transport protein assessed as inhibition constant; type: cell-based
[18] = test system: Haemophilus influenzae; test: Antibacterial activity against Haemophilus influenzae assessed as reduction in bacterial growth by broth microdilution method; type: functional
[19] = test system: Staphylococcus aureus; test: Antibacterial activity against Staphylococcus aureus assessed as reduction in bacterial growth by broth microdilution method; type: functional
[20] = test system: Streptococcus pneumoniae; test: Antibacterial activity against Streptococcus pneumoniae assessed as reduction in bacterial growth by broth microdilution method; type: functional
[21] = test system: Respiratory syncytial virus; test: Antiviral activity against RSV; type: functional, organism-based; conditions: human respiratory syncytial virus
[22] = test system: BaF3; test: Antiproliferative activity against mouse BaF3 cells transfected with FLT3-ITD assessed as cell growth inhibition; type: functional, cell-based
[23] = Inhibition of HIF (unknown origin); parameters: species or system Homo sapiens
[24] = biological target: T1, Amyloid-beta precursor protein; test: Inhibition of amyloid beta (unknown origin) at 5 uM relative to control
[25] = biological target: Microtubule-associated protein tau (Homo sapiens) (UniProt P10636); test: Inhibition of tau (unknown origin) at 5 uM relative to control
[26] = biological target: Histamine H2 receptor (Homo sapiens, UniProt P25021); test: Antagonist activity at histamine H2 receptor (unknown origin) assessed as inhibition constant
[27] = test system: LNCaP; test: Antiproliferative activity against human LNCaP cells assessed as reduction in cell viability; type: functional, cell-based
[28] = test system: HCT-116; test: cells; conditions: Homo sapiens
[29] = test system: HT-29; test: cells; conditions: Homo sapiens
Description: Antiproliferative activity against human HT-29 cells assessed as reduction in cell viability

[30] = biological target: Cyclin-dependent kinase inhibitor 1 (Homo sapiens, UniProt P38936); test: Inhibition of p21 (unknown origin)
Sequence of Cyclin-dependent kinase inhibitor 1 (P38936 whole entry): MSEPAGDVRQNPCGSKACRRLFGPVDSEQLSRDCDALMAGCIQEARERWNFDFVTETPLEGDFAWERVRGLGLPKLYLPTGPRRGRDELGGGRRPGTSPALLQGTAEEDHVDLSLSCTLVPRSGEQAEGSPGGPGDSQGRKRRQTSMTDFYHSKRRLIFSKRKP

Sequence of Ribosomal protein S6 kinase alpha-5 (O75582 whole entry): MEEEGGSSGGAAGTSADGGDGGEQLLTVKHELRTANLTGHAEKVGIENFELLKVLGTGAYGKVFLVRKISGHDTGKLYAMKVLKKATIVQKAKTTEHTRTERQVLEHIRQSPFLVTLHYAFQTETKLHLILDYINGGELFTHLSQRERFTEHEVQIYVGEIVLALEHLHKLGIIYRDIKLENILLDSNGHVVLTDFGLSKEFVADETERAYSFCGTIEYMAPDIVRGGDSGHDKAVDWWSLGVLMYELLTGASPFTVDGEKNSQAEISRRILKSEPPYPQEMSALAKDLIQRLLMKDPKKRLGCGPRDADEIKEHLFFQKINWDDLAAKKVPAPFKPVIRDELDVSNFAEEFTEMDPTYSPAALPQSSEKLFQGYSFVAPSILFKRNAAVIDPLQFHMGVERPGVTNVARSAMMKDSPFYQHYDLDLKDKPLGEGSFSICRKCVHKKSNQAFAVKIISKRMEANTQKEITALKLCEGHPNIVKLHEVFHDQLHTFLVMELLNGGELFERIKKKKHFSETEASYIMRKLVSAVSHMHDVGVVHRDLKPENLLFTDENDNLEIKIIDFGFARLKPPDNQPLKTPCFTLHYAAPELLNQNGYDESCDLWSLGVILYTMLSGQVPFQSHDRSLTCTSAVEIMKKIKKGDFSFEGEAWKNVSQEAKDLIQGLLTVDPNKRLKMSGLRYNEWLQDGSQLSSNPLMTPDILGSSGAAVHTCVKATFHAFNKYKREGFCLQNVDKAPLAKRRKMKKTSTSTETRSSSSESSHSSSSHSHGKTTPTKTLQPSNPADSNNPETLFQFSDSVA
T1 sequence (P05067 whole entry): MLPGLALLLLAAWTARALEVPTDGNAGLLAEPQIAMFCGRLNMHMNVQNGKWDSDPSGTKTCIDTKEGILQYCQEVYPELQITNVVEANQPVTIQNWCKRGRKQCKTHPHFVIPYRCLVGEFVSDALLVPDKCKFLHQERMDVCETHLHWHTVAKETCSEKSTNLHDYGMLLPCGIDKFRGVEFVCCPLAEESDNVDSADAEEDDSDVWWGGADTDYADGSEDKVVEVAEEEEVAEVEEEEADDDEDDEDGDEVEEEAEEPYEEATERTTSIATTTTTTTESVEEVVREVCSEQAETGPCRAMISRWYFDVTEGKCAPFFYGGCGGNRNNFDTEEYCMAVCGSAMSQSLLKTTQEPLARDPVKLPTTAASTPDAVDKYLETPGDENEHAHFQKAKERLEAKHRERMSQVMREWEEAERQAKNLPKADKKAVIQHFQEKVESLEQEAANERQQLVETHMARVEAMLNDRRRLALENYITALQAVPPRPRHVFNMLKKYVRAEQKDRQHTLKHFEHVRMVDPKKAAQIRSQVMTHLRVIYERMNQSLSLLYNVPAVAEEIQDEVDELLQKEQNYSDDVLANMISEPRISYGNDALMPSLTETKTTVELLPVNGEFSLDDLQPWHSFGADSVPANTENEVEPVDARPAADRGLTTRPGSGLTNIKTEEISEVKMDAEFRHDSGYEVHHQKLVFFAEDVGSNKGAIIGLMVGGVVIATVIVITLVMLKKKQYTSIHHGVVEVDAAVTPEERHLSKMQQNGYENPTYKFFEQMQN
Sequence of Tumor necrosis factor (Homo sapiens) (P01375 whole entry, looked up): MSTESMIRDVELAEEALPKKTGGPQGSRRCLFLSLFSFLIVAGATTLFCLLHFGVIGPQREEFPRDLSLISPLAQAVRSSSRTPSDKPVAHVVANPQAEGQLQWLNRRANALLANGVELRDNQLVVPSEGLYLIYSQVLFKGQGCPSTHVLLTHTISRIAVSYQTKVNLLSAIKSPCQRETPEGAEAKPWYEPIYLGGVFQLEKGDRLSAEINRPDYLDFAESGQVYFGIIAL
Sequence of Mitogen-activated protein kinase 14 (Homo sapiens) (Q16539 whole entry): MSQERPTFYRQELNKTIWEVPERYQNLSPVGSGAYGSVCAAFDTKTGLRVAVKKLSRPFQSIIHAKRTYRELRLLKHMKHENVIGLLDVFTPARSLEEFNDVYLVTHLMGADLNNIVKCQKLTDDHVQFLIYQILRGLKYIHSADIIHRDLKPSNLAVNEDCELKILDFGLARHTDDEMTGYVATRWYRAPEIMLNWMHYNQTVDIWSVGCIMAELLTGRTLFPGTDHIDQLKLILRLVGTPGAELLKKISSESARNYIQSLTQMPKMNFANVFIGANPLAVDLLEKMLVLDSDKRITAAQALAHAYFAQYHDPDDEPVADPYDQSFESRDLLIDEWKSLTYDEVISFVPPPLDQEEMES
Sequence of Microtubule-associated protein tau (Homo sapiens) (P10636 whole entry): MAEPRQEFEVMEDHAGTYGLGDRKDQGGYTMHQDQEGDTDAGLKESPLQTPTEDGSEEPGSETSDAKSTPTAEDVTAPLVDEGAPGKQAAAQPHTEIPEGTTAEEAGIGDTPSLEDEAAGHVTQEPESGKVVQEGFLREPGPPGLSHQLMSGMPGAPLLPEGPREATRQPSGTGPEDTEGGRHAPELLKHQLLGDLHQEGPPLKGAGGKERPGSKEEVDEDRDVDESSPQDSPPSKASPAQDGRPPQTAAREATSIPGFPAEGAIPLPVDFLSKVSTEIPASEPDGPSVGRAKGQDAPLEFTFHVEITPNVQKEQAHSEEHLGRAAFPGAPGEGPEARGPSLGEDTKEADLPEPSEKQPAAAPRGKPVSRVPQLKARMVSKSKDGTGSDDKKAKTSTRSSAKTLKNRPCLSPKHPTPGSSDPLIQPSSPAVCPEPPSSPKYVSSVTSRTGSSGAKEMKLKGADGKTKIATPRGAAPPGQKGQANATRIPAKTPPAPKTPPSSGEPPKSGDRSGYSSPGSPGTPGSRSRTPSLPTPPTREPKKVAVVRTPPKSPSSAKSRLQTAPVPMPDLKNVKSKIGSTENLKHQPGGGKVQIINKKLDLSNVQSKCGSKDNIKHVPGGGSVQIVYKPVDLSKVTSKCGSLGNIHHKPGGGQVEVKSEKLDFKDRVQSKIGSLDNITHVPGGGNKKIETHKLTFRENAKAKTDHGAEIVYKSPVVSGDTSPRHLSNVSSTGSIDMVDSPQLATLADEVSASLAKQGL
Sequence of Histamine H2 receptor (P25021 whole entry): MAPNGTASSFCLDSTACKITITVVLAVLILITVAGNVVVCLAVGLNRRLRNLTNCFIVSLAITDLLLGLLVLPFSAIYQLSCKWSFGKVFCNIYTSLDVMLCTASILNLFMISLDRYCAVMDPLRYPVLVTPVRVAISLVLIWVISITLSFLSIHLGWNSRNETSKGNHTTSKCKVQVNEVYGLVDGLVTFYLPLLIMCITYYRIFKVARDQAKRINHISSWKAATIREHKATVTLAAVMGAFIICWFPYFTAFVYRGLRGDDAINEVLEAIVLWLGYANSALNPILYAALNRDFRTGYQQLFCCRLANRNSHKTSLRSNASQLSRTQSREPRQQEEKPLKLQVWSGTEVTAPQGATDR
Sequence of Lactate dehydrogenase (Q0PJ46 whole entry): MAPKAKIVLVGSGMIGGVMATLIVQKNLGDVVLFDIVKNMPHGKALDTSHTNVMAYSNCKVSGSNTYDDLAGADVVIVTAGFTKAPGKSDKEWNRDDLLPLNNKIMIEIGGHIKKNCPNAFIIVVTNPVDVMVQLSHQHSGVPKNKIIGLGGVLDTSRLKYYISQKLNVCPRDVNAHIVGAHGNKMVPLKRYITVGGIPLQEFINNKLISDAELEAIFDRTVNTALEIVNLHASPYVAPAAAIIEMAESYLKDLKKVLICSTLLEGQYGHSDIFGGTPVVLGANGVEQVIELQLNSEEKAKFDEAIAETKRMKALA
Sequence of Ribosomal protein S6 kinase alpha-1 (Q15418 whole entry): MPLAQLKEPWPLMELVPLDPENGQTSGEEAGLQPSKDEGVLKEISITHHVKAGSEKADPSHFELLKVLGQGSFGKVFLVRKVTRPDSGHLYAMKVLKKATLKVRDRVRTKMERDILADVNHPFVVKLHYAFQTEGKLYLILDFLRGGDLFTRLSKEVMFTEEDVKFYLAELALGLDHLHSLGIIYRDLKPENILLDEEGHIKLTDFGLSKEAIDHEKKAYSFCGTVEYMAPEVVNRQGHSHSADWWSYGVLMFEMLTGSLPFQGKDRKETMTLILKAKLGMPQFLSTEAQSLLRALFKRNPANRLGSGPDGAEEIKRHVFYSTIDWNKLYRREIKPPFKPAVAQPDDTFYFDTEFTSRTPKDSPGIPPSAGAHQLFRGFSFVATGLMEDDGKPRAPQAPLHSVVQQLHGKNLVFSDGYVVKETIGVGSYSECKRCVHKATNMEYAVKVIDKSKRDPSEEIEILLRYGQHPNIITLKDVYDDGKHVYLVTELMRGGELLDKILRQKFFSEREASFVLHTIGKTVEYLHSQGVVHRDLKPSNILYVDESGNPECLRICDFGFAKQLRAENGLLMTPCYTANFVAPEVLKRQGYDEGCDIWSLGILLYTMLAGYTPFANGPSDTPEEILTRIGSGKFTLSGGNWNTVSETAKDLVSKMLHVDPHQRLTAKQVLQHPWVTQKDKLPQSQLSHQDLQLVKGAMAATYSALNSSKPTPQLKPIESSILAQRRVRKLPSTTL

In the case of O=[N+]([O-])c1ccc(Nc2ccccc2-c2ccccc2)c2nonc12, the EC50 [1] is reported as 30000 nM and the EC50 [2] is reported as 10000 nM.
For CC(O)c1cccc(-c2cc(NCc3ccccc3)c3nonc3c2)c1 (configuration not stated), the inhibition [3] was 66.3%.
Work on COc1ccc(C(=O)Cn2c(-c3nonc3N)nc3ccccc32)cc1 yielded an EC50 [4] of 100 nM.
Cn1cnc(COc2ccc3c(c2)C(C)(O)O[C@]32CC[C@H](n3c(-c4nonc4N)nc4cc(F)ccc43)CC2)n1 (some centres not stated) gave an IC50 [5] of 3 nM.
Molecule Clc1ccc(OC2CCN(c3nc4nonc4nc3Nc3ccc4occc4c3)CC2)cc1 has an inhibition [6] of 95% and an inhibition [7] of 51%.
In the case of N#Cc1ccc(CCN2CCN(CCc3ccc4nonc4c3)CC2)cc1, the IC50 [8] is reported as 1900 nM.
Work on N#CC1=C(C2CCCCC2=O)Nc2n[nH]cc2C1c1cccc2nonc12 (configuration not stated) yielded an IC50 [9] of 1.8 nM.
O=C(Nc1c(Cl)cncc1Cl)c1ccc(OC(F)F)c(OCC2CC2)c1 [ROFLUMILAST] gave an EC50 [10] of 50 nM, an ED50 [11] of 0.031 µmol/kg and an ED50 [12] of 0.0018 µmol/kg.
Molecule CCn1c(-c2cn(C)nc2N)nc2cnccc21 has an IC50 [13] of 1520 nM.
In the case of Cn1nnc(O)c1C(=O)O, the IC50 [14] is reported as > 100000 nM and the IC50 [15] is reported as > 100000 nM.
Work on O=[N+]([O-])c1ccc(Sc2ccc(-n3cc(CO)nn3)cc2)c2nonc12 yielded an IC50 [16] of 1000 nM.
Work on CCOC(=O)c1ccc(Nc2nc3nonc3nc2N2CCC(Cc3ccccc3)CC2)cc1 yielded an inhibition [6] of 64% and an inhibition [7] of 40%.
Work on N#CC1=C(C2CCCCN2)Nc2n[nH]cc2C1c1cccc2nonc12 (configuration not stated) yielded an IC50 [9] of 3.7 nM.
Work on N#CCCNc1nonc1C1=NC2C=CC=CC2N1CC(=O)c1ccc(N)cc1 (configuration not stated) yielded an EC50 [4] of 10 nM.
With CCn1c(-c2ccccn2)nc2cnccc21 the IC50 [13] was > 10000 nM.
O=C1OCc2cc(CCN3CCN(CCc4ccc5nonc5c4)CC3)ccc21 gave an IC50 [8] of 2200 nM.
With OC[C@H]1O[C@@H](n2cnc3c(SCc4cccc5conc45)ncnc32)[C@H](O)[C@@H]1O the Ki [17] was 666 nM.
Molecule Nc1ccc(C(=O)Cn2c(-c3nonc3N)nc3ccccc32)cc1 has an EC50 [4] of 10 nM.
Oc1nc2nonc2nc1-c1ccc(Br)cc1 showed an MIC [18] of 3.4 µM (≈ 0.996 µg/mL), an MIC [19] of 55 µM (≈ 16.1 µg/mL) and an MIC [20] of 0.22 µM (≈ 0.0645 µg/mL).
For O=[N+]([O-])c1ccc(Sc2ccc(F)cc2)c2nonc12, the IC50 [16] was 5000 nM and the IC50 [21] was 7000 nM.
Work on O=C(O)c1nonc1NCn1nnnc1Cc1cccc(Cl)c1 yielded an EC50 [22] of 3000 nM.
Molecule COc1ccc(C(=O)Cn2c(-n3ncnc3N)nc3ccccc32)cc1 has an EC50 [4] of 100 nM.
Molecule CN(C)C1CCC(C2=C(C#N)C(c3cccc4nonc34)c3c[nH]nc3N2)CC1 (configuration not stated) has an IC50 [9] of 4.1 nM.
For O=[N+]([O-])c1c(Nc2ccc(Cl)c(Cl)c2)ccc2nonc12, the IC50 [23] was 120 nM.
CCn1c(-c2c[nH]nc2N)nc2cnccc21 showed an IC50 [13] of 55 nM.
For OC1CN(c2cc(-c3cccc(C(O)C(F)(F)F)c3)cc3nonc23)C1 (configuration not stated), the inhibition [24] was 53% and the inhibition [25] was 87%.
CN(Cc1ccc(F)cc1)c1cc(C(O)C(F)(F)F)cc2nonc12 (configuration not stated) gave an inhibition [24] of 38% and an inhibition [25] of 78%.
For O=C(NCCSc1ccc([N+](=O)[O-])c2nonc12)c1cccnc1, the IC50 [16] was 1000 nM.
In the case of CN(C)Cc1ccc(CSCCNc2nonc2N)o1, the Ki [26] is reported as 26 nM.
Work on Oc1nc2nonc2nc1-c1ccc(Cl)cc1 yielded an MIC [18] of 4 µM (≈ 0.995 µg/mL), an MIC [19] of 64 µM (≈ 15.9 µg/mL) and an MIC [20] of 0.5 µM (≈ 0.124 µg/mL).
COc1ccc2c(c1)c(CC(=O)O)c(C)n2C(=O)c1ccc(Cl)cc1 [INDOMETHACIN] gave an EC50 [27] of 238000 nM, an EC50 [28] of 137000 nM and an EC50 [29] of 313000 nM.
Molecule COC(=O)c1ccc(Nc2nc3nonc3nc2N2CCC(Oc3ccc(Cl)cc3)CC2)cc1 has an inhibition [6] of 84% and an inhibition [7] of 60%.
In the case of OC[C@H]1O[C@@H](n2cnc3c(SCc4ccc5nonc5c4)ncnc32)[C@H](O)[C@@H]1O, the Ki [17] is reported as 1.5 nM.
With CCOC(=O)c1ccc(Nc2nc3nonc3nc2N2CCC(Sc3ccc(Cl)cc3)CC2)cc1 the inhibition [6] was 86% and the inhibition [7] was 36%.
Work on CCOC(=O)c1ccc(Nc2nc3nonc3nc2Nc2cccc(C)c2C)cc1 yielded an IC50 [30] of 760 nM.
O=[N+]([O-])c1ccc(Nc2ccc(Cl)cc2)c2nonc12 gave an IC50 [21] of 2000 nM.
In the case of CCCOc1ccc(Nc2nc3nonc3nc2N2CCC(Sc3ccc(C)cc3)CC2)cc1, the inhibition [6] is reported as 100% and the inhibition [7] is reported as 65%.
Molecule O=C(OCc1ccccc1)c1ccc(Nc2ccc([N+](=O)[O-])c3nonc23)cc1 has an EC50 [1] of 7200 nM and an EC50 [2] of 3500 nM.
